The values that follow come from patent US20240166665A1, “COVALENT EGFR INHIBITORS AND METHODS OF USE THEREOF” (Dana-Farber Cancer Institute, Inc., priority 2021, published 2024).

The test system of experiment [1] is BaF3 EGFR L858R/C797S. In words: Ba/F3 cell proliferation (Cell Titer Glo). The class given is cell-based, murine. Conditions: Mus musculus, 72 hours exposure. The text has this: (§1) The EGFR mutant L858R Ba/F3 cells have been previously described (Zhou, W., et al. Nature 462, 2009, 1070-1074). The EGFR C797S and C775S mutations were introduced via site directed mutagenesis using the Quick Change Site-Directed Mutagenesis kit into a vector containing EGFR L858R mutation (Stratagene; La Jolla, CA) according to the manufacturers instructions. All constructs were confirmed by DNA sequencing. The constructs were then shuttled into the retroviral vector JP1540 by either using the Cre-recombination system (Agilent Technologies, Santa Clara, CA) or the In-fusion HD Cloning kit (TakaR^a Bio USA, Inc.; Mountain view, CA). Ba/F3 cells were then infected with retrovirus per standard protocols, as described previously (Zhou, et al, Nature 2009). Stable clones were obtained by selection in puromycin (2 μg/ml). All BaF/3 mutant cells were maintained in RPMI 1640 (Cellgro; Mediatech Inc., Herndon, CA) supplemented with 10% FBS, 100 units/mL penicillin, 100 units/mL streptomycin.
(§2) Growth and inhibition of growth was assessed by the Cell Titer Glo assay (Promega, Madison, WI) and was performed according to the manufacturer's instructions. The Cell Titer Glo assay is a luminescence-based method used to determine the number of viable cells based on quantitation of the ATP present, which is directly proportional to the amount of metabolically active cells present. Ba/F3 cells of different EGFR genotypes were exposed to compounds for 72 hours and the number of cells used per experiment was determined empirically as has been previously established (Zhou, et al., Nature 2009). All experimental points were set up in triplicates in 384-well plates. […] The curves were fitted using a non-linear regression model with a sigmoidal dose response.
(In ATP-based viability assays light output follows the ATP content of the culture.)

Experiment [2] deals with BaF3 EGFR L858R. In words: Ba/F3 cell proliferation (Cell Titer Glo). The class given is cell-based, murine. Conditions: Mus musculus, 72 hours exposure.
Excerpt: as §1, §2

Experiment [3] deals with NSCLC that have developed resistance to gefitinib or erlotinib. Conditions: patients with NSCLC resistant to gefitinib or erlotinib; cited from earlier work.
For experiment [4], the target named is EGFR L858R (Homo sapiens (Human), UniProt P00533, L858R). In words: HTRF-based EGFR biochemical assay. To be noted: 100 μM ATP, 30 min preincubation, enzyme 0.1 nM. The method, then:
(§3) EGFR biochemical activity measurements were carried out using the homogeneous time-resolved fluorescence (HTRF) assay (Cisbio). Inhibitors and DMSO normalizations were first dispensed to empty black low-volume 384-well plates (Corning) with D300 digital liquid dispenser (HP). All reactions were carried out at room temperature and solutions were added to plates with a Multidrop Combi Reagent Dispenser (ThermoFisher). The reaction mixture (10 μL final volume) contained 1 μM tyrosine kinase peptide-biotin substrate and mutant EGFR in a reaction buffer (50 mM HEPES pH 7.0, 5 mM MgCl2, 1 mM MnCl2, 0.01% BSA, 2 mM TCEP, 0.1 mM NaVO4). Enzyme concentrations were adjusted to accommodate varying kinase activities (L858R^0.1 nM, L858R/T790M 0.02 nM). Enzyme reaction solution (2× concentrations, 5 μL) was added to 384-well plates containing compounds and incubated for 30 mins. Enzyme reactions were initiated with the addition of 5 μL of ATP to a final concentration of 100 μM and reacted for 20 mins. Reactions were quenched with the addition of 10 μL of phospho-tyrosine antibody-Europium(III) cryptate (1-to-180 volume ratio) and Streptavidin-XL665 (46.7 nM) in EDTA-containing detection buffer, then incubated at room temperature for 1 hour, and read with a PHERAstar plate reader (excitation=337 nm, emission=620 nm and 665 nm). IC50 values were determined by inhibition curves (11-point curves from 1.0 μM to 0.130 nM or 23-point curves from 1.0 μM to […]) in triplicate with non-linear least squares fit in GraphPad Prism 7.0d.

For experiment [5], the target named is T1, EGFR L858R/T790M (Homo sapiens (Human), UniProt P00533, L858R/T790M). In words: HTRF-based EGFR biochemical assay. Conditions: 100 μM ATP, 30 min preincubation, enzyme 0.02 nM. The method, then:
as §3

In experiment [6] the target is T1, EGFR L858R/T790M. In words: MS intact labeling assay. The class given is binding. To be noted: 10-fold molar excess of compound, 2 h at 30° C., LC-MS. The method, then:
(§4) EGFR L858R/T790M protein (10 μg) or EGFR L858R/T790M/C797S protein was treated with DMSO or a 10-fold molar excess of compound 001 for 2 h at 30° C. and analyzed by LC-MS using an HPLC (Shimadzu, Marlborough, MA) interfaced to an LTQ ion trap mass spectrometer (ThermoFisher Scientific, San Jose, CA). Protein (5 μg) was injected onto a reversed phase column (5 cm POROS 50R2, Applied Biosystems, Foster City, CA), desalted for 4 min (100% A), and gradient eluted (0-100% B in 1 min; A=0.2 M acetic acid in water; B=0.2 M acetic acid in acetonitrile) into the mass spectrometer (spray voltage=4.8 kV). The mass spectrometer was programmed to acquire profile mass spectra (m/z 300-2000). Raw data was deconvoluted using MagTran version 1.03b2.38.

For experiment [7], the target named is EGFR L858R/T790M/C797S protein (Homo sapiens (Human), UniProt P00533, C797S/L858R/T790M). In words: MS intact labeling assay. The class given is binding. To be noted: 10-fold molar excess of compound, 2 h at 30° C., LC-MS. The method, then: as §4
Sequence of EGFR L858R/T790M/C797S protein (P00533 25-1210 T790M/C797S/L858R): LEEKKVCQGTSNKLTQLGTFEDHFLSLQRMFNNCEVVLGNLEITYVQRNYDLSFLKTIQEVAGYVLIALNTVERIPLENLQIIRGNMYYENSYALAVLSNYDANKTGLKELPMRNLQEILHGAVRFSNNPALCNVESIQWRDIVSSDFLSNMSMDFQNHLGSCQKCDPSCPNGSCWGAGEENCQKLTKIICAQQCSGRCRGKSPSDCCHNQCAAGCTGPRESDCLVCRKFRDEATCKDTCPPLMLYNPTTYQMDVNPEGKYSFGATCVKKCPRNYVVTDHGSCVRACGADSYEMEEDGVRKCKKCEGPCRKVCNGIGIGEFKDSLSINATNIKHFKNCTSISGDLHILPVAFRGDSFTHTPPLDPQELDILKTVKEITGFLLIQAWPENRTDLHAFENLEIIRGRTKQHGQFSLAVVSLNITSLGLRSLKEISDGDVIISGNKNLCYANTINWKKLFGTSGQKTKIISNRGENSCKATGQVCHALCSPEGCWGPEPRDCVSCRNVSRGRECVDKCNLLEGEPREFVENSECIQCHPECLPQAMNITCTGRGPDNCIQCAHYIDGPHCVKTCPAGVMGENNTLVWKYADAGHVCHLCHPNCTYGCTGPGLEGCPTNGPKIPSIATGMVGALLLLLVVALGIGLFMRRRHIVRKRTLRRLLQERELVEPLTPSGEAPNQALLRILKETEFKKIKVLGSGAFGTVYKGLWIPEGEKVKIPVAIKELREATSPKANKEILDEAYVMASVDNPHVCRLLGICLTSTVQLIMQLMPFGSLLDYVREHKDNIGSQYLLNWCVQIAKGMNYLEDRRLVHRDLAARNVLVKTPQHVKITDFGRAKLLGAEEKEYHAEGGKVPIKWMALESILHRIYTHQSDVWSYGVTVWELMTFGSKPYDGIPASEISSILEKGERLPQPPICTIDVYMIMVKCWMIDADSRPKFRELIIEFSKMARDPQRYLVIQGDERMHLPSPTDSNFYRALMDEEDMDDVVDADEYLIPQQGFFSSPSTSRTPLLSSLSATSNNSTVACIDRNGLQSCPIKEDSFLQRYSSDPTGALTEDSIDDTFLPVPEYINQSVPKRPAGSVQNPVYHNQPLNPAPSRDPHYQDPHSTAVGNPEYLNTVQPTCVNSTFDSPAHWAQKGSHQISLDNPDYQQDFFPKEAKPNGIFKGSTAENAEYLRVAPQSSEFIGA

T1 sequence (P00533 25-1210 T790M/L858R): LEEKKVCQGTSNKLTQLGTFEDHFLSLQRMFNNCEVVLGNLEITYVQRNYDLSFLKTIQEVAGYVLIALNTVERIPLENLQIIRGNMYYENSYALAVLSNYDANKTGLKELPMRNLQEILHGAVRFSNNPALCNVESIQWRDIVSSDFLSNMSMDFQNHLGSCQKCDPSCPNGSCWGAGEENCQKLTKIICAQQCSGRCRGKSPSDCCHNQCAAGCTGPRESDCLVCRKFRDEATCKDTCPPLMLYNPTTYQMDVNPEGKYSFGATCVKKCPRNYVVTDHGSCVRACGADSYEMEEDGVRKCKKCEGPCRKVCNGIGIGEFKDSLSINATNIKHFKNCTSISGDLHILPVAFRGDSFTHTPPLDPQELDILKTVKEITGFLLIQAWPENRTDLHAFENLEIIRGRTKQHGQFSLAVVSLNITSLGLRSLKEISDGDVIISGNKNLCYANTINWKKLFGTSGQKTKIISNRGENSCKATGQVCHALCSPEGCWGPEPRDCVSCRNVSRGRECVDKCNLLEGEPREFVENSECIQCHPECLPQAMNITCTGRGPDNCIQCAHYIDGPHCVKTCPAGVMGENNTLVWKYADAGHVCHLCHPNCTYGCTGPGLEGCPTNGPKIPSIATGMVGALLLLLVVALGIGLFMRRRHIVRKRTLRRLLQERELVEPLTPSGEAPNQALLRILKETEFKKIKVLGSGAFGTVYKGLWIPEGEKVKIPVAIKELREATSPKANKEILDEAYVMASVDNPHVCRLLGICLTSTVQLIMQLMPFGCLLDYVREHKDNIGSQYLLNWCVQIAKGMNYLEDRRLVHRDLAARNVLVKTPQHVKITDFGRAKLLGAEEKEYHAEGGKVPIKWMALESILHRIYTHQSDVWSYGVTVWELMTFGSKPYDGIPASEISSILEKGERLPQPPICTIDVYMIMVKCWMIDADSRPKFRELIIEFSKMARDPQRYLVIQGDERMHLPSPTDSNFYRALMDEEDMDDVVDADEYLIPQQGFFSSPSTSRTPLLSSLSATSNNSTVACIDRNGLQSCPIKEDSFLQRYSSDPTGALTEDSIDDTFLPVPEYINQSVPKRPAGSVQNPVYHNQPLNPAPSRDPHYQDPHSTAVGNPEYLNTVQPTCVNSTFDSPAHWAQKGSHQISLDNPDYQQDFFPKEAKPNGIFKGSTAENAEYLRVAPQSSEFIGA
Sequence of EGFR L858R (P00533 25-1210 L858R): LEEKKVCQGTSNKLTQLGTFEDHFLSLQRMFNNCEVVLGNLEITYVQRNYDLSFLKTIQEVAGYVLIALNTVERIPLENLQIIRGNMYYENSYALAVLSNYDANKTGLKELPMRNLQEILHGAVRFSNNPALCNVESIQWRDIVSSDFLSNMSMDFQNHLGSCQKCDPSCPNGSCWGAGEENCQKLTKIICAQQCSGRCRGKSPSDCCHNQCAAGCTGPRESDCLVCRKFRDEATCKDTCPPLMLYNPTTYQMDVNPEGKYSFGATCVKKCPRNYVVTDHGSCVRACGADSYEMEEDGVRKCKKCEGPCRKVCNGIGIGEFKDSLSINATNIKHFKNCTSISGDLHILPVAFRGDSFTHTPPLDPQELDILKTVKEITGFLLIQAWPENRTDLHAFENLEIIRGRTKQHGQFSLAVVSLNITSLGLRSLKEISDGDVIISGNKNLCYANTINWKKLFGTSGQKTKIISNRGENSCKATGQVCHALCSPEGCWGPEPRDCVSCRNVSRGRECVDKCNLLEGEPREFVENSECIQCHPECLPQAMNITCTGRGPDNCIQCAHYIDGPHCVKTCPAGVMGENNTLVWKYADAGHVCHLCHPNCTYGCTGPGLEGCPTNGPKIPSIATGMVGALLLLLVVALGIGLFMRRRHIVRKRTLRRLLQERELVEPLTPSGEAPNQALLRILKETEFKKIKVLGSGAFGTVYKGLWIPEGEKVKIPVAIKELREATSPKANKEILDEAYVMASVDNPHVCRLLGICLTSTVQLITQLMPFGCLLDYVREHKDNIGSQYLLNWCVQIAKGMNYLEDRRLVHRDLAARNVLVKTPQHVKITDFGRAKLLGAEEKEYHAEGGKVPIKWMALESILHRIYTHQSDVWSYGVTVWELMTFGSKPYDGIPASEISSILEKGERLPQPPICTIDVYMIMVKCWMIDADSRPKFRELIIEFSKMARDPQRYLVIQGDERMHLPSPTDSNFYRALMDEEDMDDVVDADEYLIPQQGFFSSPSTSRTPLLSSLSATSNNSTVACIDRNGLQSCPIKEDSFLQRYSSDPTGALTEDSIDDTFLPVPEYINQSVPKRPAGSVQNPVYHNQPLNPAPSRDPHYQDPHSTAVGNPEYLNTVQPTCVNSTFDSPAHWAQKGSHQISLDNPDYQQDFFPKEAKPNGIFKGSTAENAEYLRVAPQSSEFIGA

On to `C=CC(=O)Nc1cc2sc1-c1cnccc1OCCC[C@@H](C)Cn1c(nc3ccc(Br)cc31)NC2=O` [Compound 003], for which the IC50 (usually the midpoint of a concentration-inhibition curve) in experiment [1] was determined as 4.03 µM; in experiment [2] it was 4.43 µM.
Regarding `CN(C)C/C=C/C(=O)Nc1cc2c(Nc3ccc(F)c(Cl)c3)ncnc2cc1O[C@H]1CCOC1` [afatinib], the “RR (response rate)” value in experiment [3] is given as “less than 10%”.
As to `C=CC(=O)Nc1cc2cc(c1)-c1cnn(C)c1OCCC[C@@H](C)Cn1c(nc3ccc(Br)cc31)NC2=O` [Compound 001], the IC50 in experiment [4] is greater than 0.1 µM; in experiment [5] it was greater than 0.1 µM; in experiment [1], 1.46 µM; in experiment [2], 2.9 µM. Moreover, the “Percent Labeling” value in experiment [6] and in experiment [7] was 80% in each case.
With `C=CC(=O)Nc1cc2sc1-c1cnn(C)c1OCCC[C@@H](C)Cn1c(nc3ccc(Br)cc31)NC2=O` [Compound 002], the IC50 in experiment [4] was greater than 0.1 µM; in experiment [5], greater than 0.1 µM; in experiment [1], 3.58 µM; in experiment [2], 4.42 µM.
